# Experiments:
# SW1990 = experiment: Composite Synergy Score, Cell-Titer Glo 72 hours, dose matrix with MRTX1133; format: cell-based; settings: combined with MRTX1133
# Procedure: (§1) Assays for determining the synergy score for the pairwise combinations for each cell line were performed in triplicate. Three 96-well plates plus an additional 4 wells of a separate 96-well control plate for determining baseline luminescence were seeded with 2000 cells/well of a particular cell line in a total volume of 90 μl of a suitable growth medium for that cell line, e.g., RPMI 1640 medium supplemented with 10% FBS and any cell line specific reagents need for growth. The plates were incubated overnight at 37° C. in a 5% CO2 atmosphere.
# (§2) To each of the designated baseline wells, 30 μl of Cell-Titer Glo reagent (CTG; Promega Corporation) was added to each well and the plates were incubated for 20 min with shaking at room temperature. Baseline luminescence was quantitated using a BMG ClarioStar multimode plate reader according to the manufacturer's instructions.
# (§3) A series of working stock 1000× drug dilutions in 100% DMSO was prepared that includes an 8 point single agent dilution of MRTX 1133 and a 5-point single agent dilution of the pan ErbB family inhibitor. The dilutions used for MRTX1133 and the pan ErbB family inhibitor varied for each individual compound but were in the range of 3- to 6-fold/serial dilution.
# (§4) A 10× intermediate dosing plate was prepared in serum free RPMI medium that contains arrayed single agent dilutions MRTX1133 or the pan ErbB family inhibitor. In addition, a matrix of 40 dilution combinations of MRTX1133 and the pan ErbB family inhibitor was prepared as test samples.
# (§5) To each corresponding well of the three 96-well plates seeded with the appropriate cell line above, 10 μl of each 10× single agent and the 40 combinations of the dose matrix was added and the plates were incubated for 72 hours at 37 C in 5% CO2 atmosphere. A 30 μl aliquot of Cell-Titer Glo reagent (CTG) was added to each test well, the plates were incubated for 20 min with shaking at room temperature, and luminescence was quantitated using a BMG ClarioStar multimode plate reader according to the manufacturer's instructions.
# (§6) The output of the data from each mathematical model is the assignment of a relative synergy score. The data reported in Table 1 are the aggregate sum of the Loewe additivity, Bliss independence, Highest Single Agent and ZIP scores (“Composite Synergy Score”).
# (§7) The output of the data from each mathematical model is the assignment of a relative synergy score.
# Panc1005 = experiment: as above; format: cell-based; settings: combined with MRTX1133
# Procedure: as §1, §2, §3, §4, §5, §6, §7
# AGS = experiment: as above; format: cell-based; settings: combined with MRTX1133
# Procedure: as §1, §2, §3, §4, §5, §6, §7
# SNU1033 = experiment: as above; format: cell-based; settings: combined with MRTX1133
# Procedure: as §1, §2, §3, §4, §5, §6, §7
# HCC1588 = experiment: as above; format: cell-based; settings: combined with MRTX1133
# Procedure: as §1, §2, §3, §4, §5, §6, §7
# Panc0813 = experiment: as above; format: cell-based; settings: combined with MRTX1133
# Procedure: as §1, §2, §3, §4, §5, §6, §7
# Panc1 = experiment: as above; format: cell-based; settings: combined with MRTX1133
# Procedure: as §1, §2, §3, §4, §5, §6, §7
# LS180 = experiment: as above; format: cell-based; settings: combined with MRTX1133
# Procedure: as §1, §2, §3, §4, §5, §6, §7
# SNUC2B = experiment: as above; format: cell-based; settings: combined with MRTX1133
# Procedure: as §1, §2, §3, §4, §5, §6, §7
# SU8684 = experiment: as above; format: cell-based; settings: combined with MRTX1133
# Procedure: as §1, §2, §3, §4, §5, §6, §7
# ASPC1 = experiment: as above; format: cell-based; settings: combined with MRTX1133
# Procedure: as §1, §2, §3, §4, §5, §6, §7
# GP2D = experiment: as above; format: cell-based; settings: combined with MRTX1133
# Procedure: as §1, §2, §3, §4, §5, §6, §7
# Panc0403 = experiment: as above; format: cell-based; settings: combined with MRTX1133
# Procedure: as §1, §2, §3, §4, §5, §6, §7
# Panc0504 = experiment: as above; format: cell-based; settings: combined with MRTX1133
# Procedure: as §1, §2, §3, §4, §5, §6, §7
# SNU410 = experiment: as above; format: cell-based; settings: combined with MRTX1133
# Procedure: as §1, §2, §3, §4, §5, §6, §7
# LS513 = experiment: as above; format: cell-based; settings: combined with MRTX1133
# Procedure: as §1, §2, §3, §4, §5, §6, §7
# SNU1197 = experiment: as above; format: cell-based; settings: combined with MRTX1133
# Procedure: as §1, §2, §3, §4, §5, §6, §7
# SNU61 = experiment: as above; format: cell-based; settings: combined with MRTX1133
# Procedure: as §1, §2, §3, §4, §5, §6, §7
# HPAFII = experiment: as above; format: cell-based; settings: combined with MRTX1133
# Procedure: as §1, §2, §3, §4, §5, §6, §7
# SUIT2 = experiment: as above; format: cell-based; settings: combined with MRTX1133
# Procedure: as §1, §2, §3, §4, §5, §6, §7
# Hec1B = experiment: as above; format: cell-based; settings: combined with MRTX1133
# Procedure: as §1, §2, §3, §4, §5, §6, §7
# Panc0203 = experiment: as above; format: cell-based; settings: combined with MRTX1133
# Procedure: as §1, §2, §3, §4, §5, §6, §7
# SNU407 = experiment: as above; format: cell-based; settings: combined with MRTX1133
# Procedure: as §1, §2, §3, §4, §5, §6, §7
# HPAC = experiment: as above; format: cell-based; settings: combined with MRTX1133
# Procedure: as §1, §2, §3, §4, §5, §6, §7
# SNU-1033 cells = experiment: SNU-1033 TGI 46 colorectal cancer xenograft, tumor volumes; format: in vivo, nude/nude mice; settings: for Average Tumor Volumes: 30 mg/kg BID 2x/week
# Procedure: Immunocompromised nude/nude mice are inoculated in the right hind flank with cells harboring a KRas G12D mutation. When tumor volumes reach between 200-400 mm^3 in size, the mice are divided into four to five groups of 5 mice each. The first group is administered vehicle only. […] The fourth or last groups are administered the single agent dose of the KRas G12D inhibitor using the twice daily schedule and/or the 2 sequential days followed by 5 days off schedule in combination with the single agent dose of one of the EGFR inhibitors. […] Tumor volumes are measured using a caliper every two-three days and tumor volumes are calculated by the formula: […].
# 20 to 30 nude/nude mice per study were inoculated in the right hind limb with 5×10^6 LS180 cells, AsPC-1 cells, GP2D cells, Panc 02.03 cells, SW1990 cells, or SNU-1033 cells.
# Experimental Procedures. 20 nude/nude mice were inoculated with SNU-1033 cells in the right hind flank. When the tumors reached ˜300 mm^3 four treatment groups were established with five mice per group.
smiles,measurement,setting,value
"CN(C)C/C=C/C(=O)Nc1cc2c(Nc3ccc(F)c(Cl)c3)ncnc2cc1OC1CCOC1 (centres unmarked) [Afatinib, (E)-N-(4-((3-chloro-4-fluorophenyl)amino)-7-((tetrahydrofuran-3-yl)oxy)quinazolin-6-yl)-4-(dimethylamino)but-2-enamide, reference compound]",Composite Synergy Score,SW1990,57
same,Composite Synergy Score,Panc1005,37
same,Composite Synergy Score,AGS,36
same,Composite Synergy Score,SNU1033,30
same,Composite Synergy Score,HCC1588,10
same,Composite Synergy Score,Panc0813,20
same,Composite Synergy Score,Panc1,−6
same,Composite Synergy Score,LS180,76
same,Composite Synergy Score,SNUC2B,25
same,Composite Synergy Score,SU8684,42
same,Composite Synergy Score,ASPC1,28
same,Composite Synergy Score,GP2D,26
same,Composite Synergy Score,Panc0403,40
same,Composite Synergy Score,Panc0504,24
same,Composite Synergy Score,SNU410,−13
same,Composite Synergy Score,LS513,69
same,Composite Synergy Score,SNU1197,63
same,Composite Synergy Score,SNU61,44
same,Composite Synergy Score,HPAFII,23
same,Composite Synergy Score,SUIT2,45
same,Composite Synergy Score,Hec1B,−5
same,Composite Synergy Score,Panc0203,54
same,Composite Synergy Score,SNU407,23
same,Composite Synergy Score,HPAC,33
"C#Cc1c(F)ccc2cc(O)cc(-c3ncc4c(N5C[C@H]6CC[C@@H](C5)N6)nc(OC[C@@]56CCCN5C[C@H](F)C6)nc4c3F)c12 [MRTX1133, 4-(4-((1R,5S)-3,8-diazabicyclo[3.2.1]octan-3-yl)-8-fluoro-2-(((2R,7aS)-2-fluorohexahydro-1H-pyrrolizin-7a-yl)methoxy)pyrido[4,3-d]pyrimidin-7-yl)-5-ethynyl-6-fluoronaphthalen-2-ol]",Average Tumor Volumes,SNU-1033 cells; Study Day 1,298.92 mm^3
same,Average Tumor Volumes,SNU-1033 cells; Study Day 5,336.336 mm^3
same,Average Tumor Volumes,SNU-1033 cells; Study Day 8,431.99 mm^3
same,Average Tumor Volumes,SNU-1033 cells; Study Day 12,468.892 mm^3
same,Average Tumor Volumes,SNU-1033 cells; Study Day 15,529.222 mm^3
same,Average Tumor Volumes,SNU-1033 cells; Study Day 19,643.516 mm^3
same,Average Tumor Volumes,SNU-1033 cells; Study Day 22,703.368 mm^3
same,Average Tumor Volumes,SNU-1033 cells; Study Day 26,802.69 mm^3
same,Average Tumor Volumes,SNU-1033 cells; Study Day 29,838.708 mm^3
same,Average Tumor Volumes,SNU-1033 cells; Study Day 33,895.918 mm^3
same,tumor growth inhibition,"SNU-1033 cells; 30 mg/kg twice per week, single agent, Day 33",47%

# Source: US20240408099A1, “COMBINATION […] OF KRAS G12D INHIBITORS WITH Pan ErbB FAMILY INHIBITORS” (MIRATI THERAPEUTICS, INC., priority 2021, published 2024)
